Measurements taken from US11236105B2, “Bicyclic compounds and methods of use” (BioTheryX, Inc., priority 2017, dated 2022).

System: TNF-α
Assay: Cell-Based TNFα Inhibition Assay (PBMCs induced with LPS, Meso Scale)
Details: PBMCs pretreated 1 hr, induced with LPS 100 ng/mL 18-24 hrs, supernatant TNF-α; for inhibition at 0.1 µM / inhibition at 1 µM: PBMC; for inhibition at 0.1 µM / % TNFα Inhibition (0.1 μM): 0.1 μM compound; for inhibition at 1 µM / % TNFα Inhibition (1 μM): 1 μM compound
Procedure: Cell-Based TNFα Inhibition Assay
PBMCs induced with LPS (lipopolysaccharide): Frozen […] blood mononuclear cells (PBMCs) are purchased from AllCells. Cells are quick thawed, washed once with Roswell Park Memorial Institute medium (RPMI)-1640/10% FBS/1% Penicillin/1% Streptomycin and plated in 96 well plates at 200,000 cells per well. Cells are pretreated with DMSO only or the indicated compounds for 1 hr and then induced with […] for 18-24 hrs. The supernatant is analyzed for TNF-α using Meso Scale assay according to manufacturer's protocol. The negative control wells are treated with DMSO. Compound activity is measured as a percentage of the DMSO control.

| SMILES | inhibition at 0.1 µM | inhibition at 1 µM | % TNFα Inhibition (0.1 μM) | % TNFα Inhibition (1 μM) |
| --- | --- | --- | --- | --- |
| CC(=O)Nc1scc2c1C(=O)N([C@H](CS(C)(=O)=O)c1ccc3c(c1)OCO3)C2=O [Compound 12, N-(5-(1-(benzo[d][1,3]dioxol-5-yl)-2-(methylsulfonyl)ethyl)-4,6-dioxo-5,6-dihydro-4H-thieno[3,4-c]pyrrol-1-yl)acetamide] | < 20% | < 20% |  |  |
| CCOc1cc([C@@H](CS(C)(=O)=O)N2Cc3c(NC(=O)C4CC4)csc3C2=O)ccc1OC [Compound 32, (S)—N-(5-(1-(3-ethoxy-4-methoxyphenyl)-2-(methylsulfonyl)ethyl)-6-oxo-5,6-dihydro-4H-thieno[2,3-c]pyrrol-3-yl)cyclopropanecarboxamide] | < 20% | 20 to 40% |  |  |
| CCOc1cc([C@H](CS(=O)(=O)N(C)C)N2C(=O)c3csc(NC(C)=O)c3C2=O)ccc1OC [Compound 29, (R)—N-(5-(2-(N,N-dimethylsulfamoyl)-1-(3-ethoxy-4-methoxyphenyl)ethyl)-4,6-dioxo-5,6-dihydro-4H-thieno[3,4-c]pyrrol-1-yl)acetamide] | < 20% | < 20% |  |  |
| CCOc1cc([C@@H](CS(C)(=O)=O)N2C(=O)c3scc(NC(=O)C4CC4)c3C2=O)ccc1OC [Compound 11, (S)—N-(5-(1-(3-ethoxy-4-methoxyphenyl)-2-(methylsulfonyl)ethyl)-4,6-dioxo-5,6-dihydro-4H-thieno[2,3-c]pyrrol-3-yl)cyclopropanecarboxamide] | < 20% | 20 to 40% |  |  |
| CS(=O)(=O)C[C@H](c1ccc2c(c1)OCO2)N1C(=O)c2csc(NC(=O)C3CC3)c2C1=O [Compound 13, N-(5-(1-(benzo[d][1,3]dioxol-5-yl)-2-(methylsulfonyl)ethyl)-4,6-dioxo-5,6-dihydro-4H-thieno[3,4-c]pyrrol-1-yl)cyclopropane Carboxamide] | < 20% | < 20% |  |  |
| CCOc1cc([C@@H](CS(C)(=O)=O)N2C(=O)c3csc(NC(=O)C(F)(F)F)c3C2=O)ccc1OC [Compound 7, (S)—N-(5-(1-(3-ethoxy-4-methoxyphenyl)-2-(methylsulfonyl)ethyl)-4,6-dioxo-5,6-dihydro-4H-thieno[3,4-c]pyrrol-1-yl)-2,2,2-trifluoroacetamide] | < 20% | < 20% |  |  |
| CS(=O)(=O)C[C@H](c1ccc2c(c1)OCO2)N1C(=O)c2scc(NC(=O)C(F)(F)F)c2C1=O [Compound 21, N-(5-(1-(benzo[d][1,3]dioxol-5-yl)-2-(methylsulfonyl)ethyl)-4,6-dioxo-5,6-dihydro-4H-thieno[2,3-c]pyrrol-3-yl)-2,2,2-trifluoroacetamide] | < 20% | < 20% |  |  |
| COCC(=O)Nc1csc2c1C(=O)N([C@H](CS(C)(=O)=O)c1ccc3c(c1)OCO3)C2=O [Compound 25, N-(5-(1-(benzo[d][1,3]dioxol-5-yl)-2-(methylsulfonyl)ethyl)-4,6-dioxo-5,6-dihydro-4H-thieno[2,3-c]pyrrol-3-yl)-2-methoxy acetamide] | < 20% | 20 to 40% |  |  |
| CCOc1cc([C@@H](CS(C)(=O)=O)N2C(=O)c3csc(NC(=O)C(C)C(F)(F)F)c3C2=O)ccc1OC (stereo partly drawn) [Compound 5, N-(5-((S)-1-(3-ethoxy-4-methoxyphenyl)-2-(methylsulfonyl)ethyl)-4,6-dioxo-5,6-dihydro-4H-thieno[3,4-c]pyrrol-1-yl)-3,3,3-trifluoro-2-methylpropanamide] | 20 to 40% | > 60% |  |  |
| COCC(=O)Nc1csc2c1C(=O)N([C@@H](CS(C)(=O)=O)c1ccc3c(c1)OCO3)C2=O [Compound 26, N-(5-(1-(benzo[d][1,3]dioxol-5-yl)-2-(methylsulfonyl)ethyl)-4,6-dioxo-5,6-dihydro-4H-thieno[2,3-c]pyrrol-3-yl)-2-methoxy acetamide] | < 20% | < 20% |  |  |
| CCOc1cc([C@@H](CS(C)(=O)=O)N2Cc3c(NC(=O)COC)csc3C2=O)ccc1OC [Compound 31, (S)—N-(5-(1-(3-ethoxy-4-methoxyphenyl)-2-(methylsulfonyl)ethyl)-6-oxo-5,6-dihydro-4H-thieno[2,3-c]pyrrol-3-yl)-2-methoxyacetamide] | < 20% | < 20% |  |  |
| CC(=O)Nc1csc2c1C(=O)N([C@H](CS(C)(=O)=O)c1ccc3c(c1)OCO3)C2=O [Compound 23, N-(5-(1-(benzo[d][1,3]dioxol-5-yl)-2-(methylsulfonyl)ethyl)-4,6-dioxo-5,6-dihydro-4H-thieno[2,3-c]pyrrol-3-yl)acetamide] | 20 to 40% | 40 to 60% |  |  |
| CCOc1cc([C@@H](CS(C)(=O)=O)N2C(=O)c3csc(N(C(=O)C4CC4)C(=O)C4CC4)c3C2=O)ccc1OC [Compound 4] | < 20% | 40 to 60% |  |  |
| CS(=O)(=O)C[C@H](c1ccc2c(c1)OCO2)N1C(=O)c2scc(NC(=O)C(F)(F)F)c2C1=O [Compound 22, N-(5-(1-(benzo[d][1,3]dioxol-5-yl)-2-(methylsulfonyl)ethyl)-4,6-dioxo-5,6-dihydro-4H-thieno[2,3-c]pyrrol-3-yl)-2,2,2-trifluoroacetamide] |  |  | C (C = a single percent inhibition value ≤40% and >20%) | C (C = a single percent inhibition value ≤40% and >20%) |
| CCOc1cc([C@@H](CS(C)(=O)=O)N2C(=O)c3scc(NC(=O)COC)c3C2=O)ccc1OC [Compound 10, (S)—N-(5-(1-(3-ethoxy-4-methoxyphenyl)-2-(methylsulfonyl)ethyl)-4,6-dioxo-5,6-dihydro-4H-thieno[2,3-c]pyrrol-3-yl)-2-methoxyacetamide] | < 20% | 40 to 60% |  |  |
| CCOc1cc([C@@H](CS(C)(=O)=O)N2C(=O)c3csc(NC(=O)C(CC)CC)c3C2=O)ccc1OC [Compound 6] | 40 to 60% | > 60% |  |  |
| CCOc1cc([C@@H](CS(=O)(=O)N(C)C)N2C(=O)c3csc(NC(C)=O)c3C2=O)ccc1OC [Compound 15, (S)—N-(5-(2-(N,N-dimethylsulfamoyl)-1-(3-ethoxy-4-methoxyphenyl)ethyl)-4,6-dioxo-5,6-dihydro-4H-thieno[3,4-c]pyrrol-1-yl)acetamide] | < 20% | < 20% |  |  |
| CCOc1cc([C@@H](CS(C)(=O)=O)N2C(=O)c3csc(NC(=O)C4CC4)c3C2=O)ccc1OC [Compound 8, (S)—N-(5-(1-(3-ethoxy-4-methoxyphenyl)-2-(methylsulfonyl)ethyl)-4,6-dioxo-5,6-dihydro-4H-thieno[3,4-c]pyrrol-1-yl)cyclopropanecarboxamide] | < 20% | > 60% |  |  |
| CCOc1cc([C@@H](CS(C)(=O)=O)N2C(=O)c3csc(NC(=O)COC)c3C2=O)ccc1OC [Compound 3, (S)—N-(5-(1-(3-ethoxy-4-methoxyphenyl)-2-(methylsulfonyl)ethyl)-4,6-dioxo-5,6-dihydro-4H-thieno[3,4-c]pyrrol-1-yl)-2-methoxyacetamide] | 40 to 60% | > 60% |  |  |
| CCOc1cc([C@@H](CS(C)(=O)=O)N2C(=O)c3csc(NC(=O)C(C)(C)C)c3C2=O)ccc1OC [Compound 2, (S)—N-(5-(1-(3-ethoxy-4-methoxyphenyl)-2-(methylsulfonyl)ethyl)-4,6-dioxo-5,6-dihydro-4H-thieno[3,4-c]pyrrol-1-yl)pivalamide] | < 20% | > 60% |  |  |
| CC(=O)Nc1scc2c1C(=O)N([C@H](CS(C)(=O)=O)c1ccc3c(c1)OCCO3)C2=O [Compound 14, N-(5-(1-(2,3-dihydrobenzo[b][1,4]dioxin-6-yl)-2-(methylsulfonyl)ethyl)-4,6-dioxo-5,6-dihydro-4H-thieno[3,4-c]pyrrol-1-yl) acetamide] | < 20% | < 20% |  |  |
| CC(=O)Nc1csc2c1C(=O)N([C@H](CS(C)(=O)=O)c1ccc3c(c1)OCO3)C2=O [Compound 24, N-(5-(1-(benzo[d][1,3]dioxol-5-yl)-2-(methylsulfonyl)ethyl)-4,6-dioxo-5,6-dihydro-4H-thieno[2,3-c]pyrrol-3-yl)acetamide] |  |  | D (D = a single percent inhibition value <20%) | D (D = a single percent inhibition value <20%) |
| CCOc1cc([C@@H](CS(C)(=O)=O)N2C(=O)c3csc(NC(C)=O)c3C2=O)ccc1OC [Compound 1, (S)—N-(5-(1-(3-ethoxy-4-methoxyphenyl)-2-(methylsulfonyl)ethyl)-4,6-dioxo-5,6-dihydro-4H-thieno[3,4-c]pyrrol-1-yl)acetamide] | 40 to 60% | > 60% |  |  |
| CS(=O)(=O)C[C@H](c1ccc2c(c1)OCO2)N1C(=O)c2csc(NC(=O)C(F)(F)F)c2C1=O [Compound 16, N-(5-(1-(benzo[d][1,3]dioxol-5-yl)-2-(methylsulfonyl)ethyl)-4,6-dioxo-5,6-dihydro-4H-thieno[3,4-c]pyrrol-1-yl)-2,2,2-trifluoro Acetamide] | < 20% | < 20% |  |  |
| CCOc1cc([C@@H](CS(C)(=O)=O)N2Cc3c(NC(=O)C(F)(F)F)csc3C2=O)ccc1OC [Compound 30, (S)—N-(5-(1-(3-ethoxy-4-methoxyphenyl)-2-(methylsulfonyl)ethyl)-6-oxo-5,6-dihydro-4H-thieno[2,3-c]pyrrol-3-yl)-2,2,2-trifluoroacetamide] | < 20% | < 20% |  |  |
